Experimental data: article PMC9822769, “The Strange Case: The Unsymmetric Cisplatin-Based Pt(IV) Prodrug [Pt(CH3COO)Cl2(NH3)2(OH)] Exhibits Higher Cytotoxic Activity with respect to Its Symmetric Congeners due to Carrier-Mediated Cellular Uptake” (Bioinorganic Chemistry and Applications, 2022)

How the values were obtained:
A2780cisR cells = assay: Cellular Pt accumulation (accumulation ratio) in A2780cisR cells; format: cell-based, human; conditions: 4 h CT, 10 μM
Method: A2780 and A2780cisR cells were seeded in 10 mm Petri dishes and challenged with complexes under investigation (10 μM) in a complete medium for 4 h. At the end of the exposure, cells were washed three times with PBS, detached from Petri dishes using 0.05% trypsin 1x + 2% EDTA (HyClone, Thermo Fisher), and harvested in a completely fresh medium. An automatic cell counting device (Countess®, Life Technologies) was used to measure the number and mean diameter of each cell necessary to calculate the mean cellular (spherical) volume.
For the analysis of Pt accumulation, cells were transferred to a borosilicate glass tube and centrifuged at 1100 rpm for 5 min at room temperature. […]
The determination of the platinum content was performed by ICP-MS (Thermo Optek X Series 2). […] The instrument settings were optimized to produce the highest platinum sensitivity, and the most abundant isotopes of Pt and In (used as an internal standard) were quantified at m/z 195 and 115, respectively.
The quantity of Pt found in cells and normalized on cell number (cellular Pt accumulation) was expressed as ng of Pt per 10^6 cells. The mean cellular volume, calculated from the actual mean cell diameter measured for each sample (about 12 μm), was used to obtain the volume of 10^6 cells and, finally, the intracellular Pt concentration. […]

A2780 cells = assay: DNA platination in A2780 cells; format: cell-based, human; conditions: A2780, 24 h CT, 10 μM
Method: Cells were seeded in 175 cm^2 flasks and treated for 24 h with the complexes under investigation (10 μM) as described previously. From this sample, about 5 × 10^6 cells were taken out for the cellular accumulation analysis (see the previous section), whereas about 20 × 10^6 cells were taken out for the DNA platination analysis.
For DNA platination analysis, cells were transferred to a plastic tube and centrifuged at 1100 rpm for 5 min at room temperature. […]
After washing, DNA was eluted in 300 μL of elution buffer. […] Absorbance at 260 nm (A260, relative to nucleic acids) and 280 nm (A280, relative to proteins) was recorded from triplicate wells.
For each well, A260 and A280 were corrected by subtracting the background, and then the purity of the samples was verified by means of the A260 to A280 ratio. After subtracting the mean A260 from the blank wells, the DNA concentration was calculated from the corrected A260 using a calibration curve obtained with the calf thymus DNA. Under these conditions, an absorbance of 1 unit at 260 nm corresponds to 100 μg of DNA per mL. The remaining amount of DNA elution buffer was transferred to a borosilicate glass tube, and its precise volume was determined by weight to calculate the total amount of DNA and then stored at −20°C until mineralization. […]

## N.N.[Cl][Pt][Cl] [Cisplatin, (SP-4-2)-diamminedichloridoplatinum(II)]
A2780cisR cells
  Pt accumulation (AR) in A2780cisR compared with A2780: much lower amounts of Pt than A2780

## CC(=O)[O][Pt]([OH])([Cl])[Cl].N.N [Complex 2, (OC-6-44)-acetatodiamminedichloridohydroxidoplatinum(IV)]
A2780 cells
  DNA platination: the highest among Complexes 1–3 and was similar to that of cisplatin
